# Source: ChEMBL document CHEMBL3102694, “Synthesis of C11-Desmethoxy Soraphen A1α: A natural product analog that inhibits acetyl-CoA carboxylase” (ACS Med Chem Lett, 2013)
# Active and inactive are the calls of the source. The calls are words filed in the database; no cut-off is given here.
# What was measured:
# Mus musculus [1] = organism: Mus musculus; assay: Cytotoxicity against mouse SCR1163 cells at 1.25 to 10 uM after 24 to 72 hrs by MTT assay; assay type: functional, cell-based
# Mus musculus [2] = organism: Mus musculus; assay: Inhibition of acetyl-CoA carboxylase in mouse SCR1693 cells assessed as reduction in [14C]-acetate incorporation into fatty acid at 0.1 to 1 uM after 4 hrs; assay type: cell-based
# Mus musculus [3] = organism: Mus musculus; assay: Inhibition of acetyl-CoA carboxylase in mouse SCR1163 cells assessed as reduction in [14C]-acetate incorporation into fatty acid at 0.1 to 1 uM after 4 hrs; assay type: cell-based
Compound,Activity (Mus musculus [1]),inhibition (Mus musculus [2]),inhibition (Mus musculus [3])
CO[C@@H]1C/C=C/[C@H](C)[C@@H]2O[C@](O)([C@H](C)C(=O)O[C@H](c3ccccc3)CCCC1)[C@H](OC)[C@@H](O)[C@@H]2C,Active,48%,59%
CO[C@H]1CCCC[C@@H](c2ccccc2)OC(=O)[C@@H](C)[C@@]2(O)O[C@H]([C@@H](C)[C@H](O)[C@H]2OC)[C@@H](C)/C=C/[C@H]1OC,–,Active,Active
